# Earlier results, collected in patent publication US9801827B2, “Dosage forms for administering combinations of drugs” (Pozen Inc., priority 2006, dated 2017).
# Settings: pharmacokinetic half-life, given as examples of long acting NSAIDs
row,Structure (SMILES),half-life
1,COc1ccc2cc(CCC(C)=O)ccc2c1 [nabumetone],22 to 30 h
2,O=C(O)CCc1nc(-c2ccccc2)c(-c2ccccc2)o1 [oxaprozin],42 to 50 h
3,Cc1cccc(Nc2ccccc2C(=O)O)c1C [mefenamic acid],up to 4 hours
4,CC(C(=O)O)c1ccc(-c2ccccc2)c(F)c1 (stereo not drawn) [flurbiprofen],about 6 hours

# Further lines, results first:
row,half-life,Structure (SMILES)
1,about 7 hours,CCc1cccc2c3c([nH]c12)C(CC)(CC(=O)O)OCC3 (stereo not drawn) [etodolac]
2,8 to 9 h,O=C(c1ccccc1)c1ccc2n1CCC2C(=O)O (stereo not drawn) [ketorolac]
